Experimental findings from ChEMBL document CHEMBL2062361, “Synthesis and antiproliferative evaluation of some new amidino-substituted bis-benzothiazolyl-pyridines and pyrazine” (Eur J Med Chem, 2012) are described below.

One assay has as its system HeLa. Nature of the assay: Antiproliferative activity against human HeLa cells after 72 hrs by MTT assay. In kind it is functional, cell-based. (In general: Tetrazolium dyes change colour on reduction, which living cells bring about.)
In another assay the test system is MCF7. Nature of the assay: Antiproliferative activity against human MCF7 cells after 72 hrs by MTT assay. In kind it is functional, cell-based. As to conditions: MCF7, 72 h.
A further assay relates to SK-BR-3. Nature of the assay: Antiproliferative activity against human SK-BR-3 cells after 72 hrs by MTT assay. In kind it is functional, cell-based. To be noted: SK-BR-3, 72 h.
Another assay relates to MIA PaCa-2. The experiment in a line: Antiproliferative activity against human MIAPaCa2 cells after 72 hrs by MTT assay. To be noted: MIA PaCa-2, 72 h. In kind it is functional, cell-based.
Another assay has as its system SW-620. Nature of the assay: Antiproliferative activity against human SW620 cells after 72 hrs by MTT assay. The class given is functional, cell-based. To be noted: SW-620, 72 h.
The next assay relates to BJ. Nature of the assay: Antiproliferative activity against human BJ cells after 72 hrs by MTT assay. In kind it is cell-based.

By IC50 is commonly meant the midpoint of a concentration-inhibition curve. Read a high IC50 as lower potency. Regarding `N=C(N)c1ccc2nc(-c3cncc(-c4nc5ccc(C(=N)N)cc5s4)c3)sc2c1`, the 50% inhibitory concentration (IC50) with HeLa was greater than 100 µM; with MCF7 it was greater than 100 µM; with SK-BR-3, greater than 100 µM; with MIA PaCa-2 it was 86.7 µM; with SW-620 it was greater than 100 µM; in the assay on BJ it was 15 µM.

`N=C(N)c1ccc2nc(-c3ccnc(-c4nc5ccc(C(=N)N)cc5s4)c3)sc2c1`: the 50% inhibitory concentration (IC50) is greater than 100 µM in the assay on HeLa; 78.9 µM in the assay with MCF7; greater than 100 µM in the assay on SK-BR-3; 61.1 µM in the assay with MIA PaCa-2; greater than 100 µM with SW-620; 2.92 µM in the assay with BJ.

Regarding `c1cc2nc(-c3ccc(-c4nc5ccc(C6=NCCN6)cc5s4)nc3)sc2cc1C1=NCCN1`, the IC50 was 3.4 µM in the assay with HeLa; 4.4 µM in the assay with MCF7; 3.4 µM in the assay with SK-BR-3; 4.4 µM in the assay with MIA PaCa-2; 2.8 µM with SW-620; 0.34 µM with BJ.

On to `c1cc2nc(-c3cncc(-c4nc5ccc(C6=NCCN6)cc5s4)c3)sc2cc1C1=NCCN1`, for which the IC50 came to 0.3 µM with HeLa; 0.9 µM in the assay on MCF7; 0.5 µM in the assay on SK-BR-3; 6.6 µM in the assay on MIA PaCa-2; 0.42 µM with SW-620; 0.16 µM in the assay on BJ.

As to `c1cc2nc(-c3cnc(-c4nc5ccc(C6=NCCN6)cc5s4)cn3)sc2cc1C1=NCCN1`, the half-maximal inhibitory concentration (IC50) came out at 1.9 µM in the assay on HeLa; 1.2 µM in the assay on MCF7; 0.9 µM in the assay on SK-BR-3; 5.1 µM in the assay on MIA PaCa-2; 1.8 µM with SW-620; 0.07 µM in the assay with BJ.
